Measured values as given in patent publication US12624018B1, “Inhibitors of RIPK2 and medical uses thereof” (Odyssey Therapeutics, Inc., priority 2022, dated 2026).
pIC50: −log10 of the molar value.

These compounds were tested against T1, RIPK2 enzyme (Homo sapiens, UniProt O43353) (assay: RIPK2 inhibition (ADP-Glo Kinase Assay)). Settings: RIPK2 5 nM, ATP 150 μM, MBP substrate, read-out: RIPK2 IC50.
T1 construct: purchased Carna 09-128
Type: biochemical
Procedure, shortened: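 Swine MBP substrate; compound and 5 nM RIPK2 first mixed for 30 min at room temperature; buffer pH 7.5 HEPES 50 mM with 10 mM MgCl2, 2 mM DTT, 1 mM EGTA, Brij-35, BSA.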

T1 sequence (O43353 1-299 limits assumed): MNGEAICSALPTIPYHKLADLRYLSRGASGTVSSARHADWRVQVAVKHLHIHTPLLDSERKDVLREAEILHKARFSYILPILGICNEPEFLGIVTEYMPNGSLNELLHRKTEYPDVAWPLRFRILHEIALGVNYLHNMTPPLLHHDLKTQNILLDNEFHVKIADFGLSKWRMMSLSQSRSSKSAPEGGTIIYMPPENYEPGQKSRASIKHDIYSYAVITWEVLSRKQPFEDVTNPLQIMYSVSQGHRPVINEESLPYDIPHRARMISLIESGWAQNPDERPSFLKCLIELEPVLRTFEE

Going from `CC(C)(C)n1cc(NC(=O)Cc2ccc(Oc3ccnc4ccc(S(C)(=N)=O)cc34)c(Cl)c2)cn1` (stereo not drawn) [Compound 90, N-(1-(tert-butyl)-1H-pyrazol-4-yl)-2-(3-chloro-4-((6-(S-methylsulfonimidoyl)quinolin-4-yl)oxy)phenyl)acetamide] to `[2H]C([2H])([2H])c1cc(CC(=O)Nc2cnn(C(C)(C)C)c2)ccc1Oc1ccnc2ccc(S(C)(=O)=O)cc12` [Compound 93, N-(1-(tert-butyl)-1H-pyrazol-4-yl)-2-(3-(methyl-d3)-4-((6-(methylsulfonyl)quinolin-4-yl)oxy)phenyl)acetamide], the pIC50 rises from 8.54 to over 8.60.

`CCN1CCC(Oc2ccc3nccc(Oc4ccc(CC(=O)Nc5cnn(C(C)(C)C)c5)cc4C)c3c2)CC1` [Compound 94, N-(1-(tert-butyl)-1H-pyrazol-4-yl)-2-(4-((6-((1-ethylpiperidin-4-yl)oxy)quinolin-4-yl)oxy)-3-methylphenyl) acetamide] and `Cc1cc(CC(=O)Nc2cnn(C(C)(C)C)c2)ccc1Oc1ccnc2ccc(OC3CCN(CC(F)F)CC3)cc12` [Compound 120, N-(1-(tert-butyl)-1H-pyrazol-4-yl)-2-(4-((6-((1-(2,2-difluoroethyl)piperidin-4-yl)oxy)quinolin-4-yl)oxy)-3-methylphenyl) acetamide] cannot be ordered by pIC50: over 8.60 for the first, over 8.60 for the second.

`Cc1cc(CC(=O)Nc2cnn(C(C)(C)C)c2)ccc1Oc1ccnc2ccc(OC3CCN(C4CC4)CC3)cc12` [Compound 95, N-(1-(tert-butyl)-1H-pyrazol-4-yl)-2-(4-((6-((1-cyclopropyl-piperidin-4-yl)oxy)quinolin-4-yl)oxy)-3-methylphenyl) acetamide] and `Cc1cc(CC(=O)Nc2cnn(C(C)(C)C)c2)ccc1Oc1ccnc2ccc(OC3CCN(C4COC4)CC3)cc12` [Compound 96, N-(1-(tert-butyl)-1H-pyrazol-4-yl)-2-(3-methyl-4-((6-((1-(oxetan-3-yl)piperidin-4-yl)oxy)quinolin-4-yl)oxy)phenyl) acetamide] cannot be ordered by pIC50: over 8.60 for the first, over 8.60 for the second.

`Cc1cc(CC(=O)Nc2cnn(C(C)(C)C)c2)ccc1Oc1ccnc2ccc(S(=O)(=O)C3CCN(C)CC3)cc12` [Compound 97, N-(1-(tert-butyl)-1H-pyrazol-4-yl)-2-(3-methyl-4-((6-((1-methylpiperidin-4-yl)sulfonyl)quinolin-4-yl)oxy)phenyl)acetamide] and `Cc1cc(CC(=O)Nc2cnn(C(C)(C)C)c2)ccc1Oc1ccnc2ccc(S(=O)(=O)C3CC3)cc12` [Compound 100, N-(1-(tert-butyl)-1H-pyrazol-4-yl)-2-(4-((6-(cyclopropylsulfonyl)quinolin-4-yl)oxy)-3-methylphenyl)acetamide] cannot be ordered by pIC50: over 8.60 for the first, over 8.60 for the second.

`Cc1cc(CC(=O)Nc2cnn(C(C)(C)C)c2)ccc1Oc1ccnc2ccc(S(=O)(=O)C3CCOCC3)cc12` [Compound 98, N-(1-(tert-butyl)-1H-pyrazol-4-yl)-2-(3-methyl-4-((6-((tetrahydro-2H-pyran-4-yl)sulfonyl)quinolin-4-yl)oxy)phenyl)acetamide] and `Cc1cc(CC(=O)Nc2cnn(C(C)(C)C)c2)ccc1Oc1ccnc2ccc(S(=O)(=O)C3COC3)cc12` [Compound 101, N-(1-(tert-butyl)-1H-pyrazol-4-yl)-2-(3-methyl-4-((6-(oxetan-3-ylsulfonyl)quinolin-4-yl)oxy)phenyl)acetamide] cannot be ordered by pIC50: over 8.60 for the first, over 8.60 for the second.

`Cc1c(Oc2ccnc3ccc(OC4CCNCC4)cc23)ccc(CC(=O)Nc2cnn(C(C)(C)C)c2)c1F` [Compound 102, N-(1-(tert-butyl)-1H-pyrazol-4-yl)-2-(2-fluoro-3-methyl-4-((6-(piperidin-4-yloxy)quinolin-4-yl)oxy)phenyl) acetamide] and `Cc1c(Oc2ccnc3ccc(OC4CCN(C)CC4)cc23)ccc(CC(=O)Nc2cnn(C(C)(C)C)c2)c1F` [Compound 103, N-(1-(tert-butyl)-1H-pyrazol-4-yl)-2-(2-fluoro-3-methyl-4-((6-((1-methylpiperidin-4-yl)oxy)quinolin-4-yl)oxy)phenyl)acetamide] cannot be ordered by pIC50: over 8.60 for the first, over 8.60 for the second.

`[2H]C([2H])([2H])c1cc(CC(=O)Nc2cnn(C(C)(C)C)c2)ccc1Oc1ccnc2ccc(OC3CCNCC3)cc12` [Compound 104, N-(1-(tert-butyl)-1H-pyrazol-4-yl)-2-(3-(methyl-d3)-4-((6-(piperidin-4-yloxy)quinolin-4-yl)oxy)phenyl) acetamide] and `[2H]C([2H])([2H])c1cc(CC(=O)Nc2cnn(C(C)(C)C)c2)ccc1Oc1ccnc2ccc(OC3CCN(C)CC3)cc12` [Compound 105, N-(1-(tert-butyl)-1H-pyrazol-4-yl)-2-(3-(methyl-d3)-4-((6-((1-methyl-piperidin-4-yl)oxy)quinolin-4-yl)oxy)phenyl) acetamide] cannot be ordered by pIC50: over 8.60 for the first, over 8.60 for the second.

`Cc1c(Oc2ncnc3ccc(OC4CCNCC4)cc23)ccc(CC(=O)Nc2cnn(C(C)(C)C)c2)c1F` [Compound 106, N-(1-(tert-butyl)-1H-pyrazol-4-yl)-2-(2-fluoro-3-methyl-4-((6-(piperidin-4-yloxy)quinazolin-4-yl)oxy)phenyl) acetamide] and `Cc1c(Oc2ncnc3ccc(OC4CCN(C)CC4)cc23)ccc(CC(=O)Nc2cnn(C(C)(C)C)c2)c1F` [Compound 107, N-(1-(tert-butyl)-1H-pyrazol-4-yl)-2-(2-fluoro-3-methyl-4-((6-((1-methyl-piperidin-4-yl)oxy)quinazolin-4-yl)oxy)phenyl) acetamide] cannot be ordered by pIC50: over 8.60 for the first, over 8.60 for the second.

Going from `CCN1CCC(Oc2ccc3nccc(Oc4cnc(CC(=O)Nc5cnn(C(C)(C)C)c5)c(F)c4)c3c2)CC1` [Compound 108, N-(1-(tert-butyl)-1H-pyrazol-4-yl)-2-(5-((6-((1-ethylpiperidin-4-yl)oxy)quinolin-4-yl)oxy)-3-fluoropyridin-2-yl)acetamide] to `CC(C)(C)n1cc(NC(=O)Cc2ncc(Oc3ncnc4ccc(OC5CCN(CC(F)(F)F)CC5)cc34)cc2F)cn1` [Compound 112, N-(1-(tert-butyl)-1H-pyrazol-4-yl)-2-(3-fluoro-5-((6-((1-(2,2,2-trifluoroethyl)piperidin-4-yl)oxy)quinazolin-4-yl)oxy)pyridin-2-yl)acetamide], the pIC50 falls from 7.95 to 7.68 (0.27 log units). The first is the more potent here.

First: CCN1CCC(Oc2ccc3ncnc(Oc4ccc(CC(=O)Nc5cnn(C(C)(C)C)c5)cc4C)c3c2)CC1 [Compound 109, N-(1-(tert-butyl)-1H-pyrazol-4-yl)-2-(4-((6-((1-ethyl-piperidin-4-yl)oxy)quinazolin-4-yl)oxy)-3-methylphenyl) acetamide]
Second: Cc1cc(CC(=O)Nc2cnn(C(C)(C)C)c2)ccc1Oc1ncnc2ccc(OC3CCN(CC(F)(F)F)CC3)cc12 [Compound 111, N-(1-(tert-butyl)-1H-pyrazol-4-yl)-2-(3-methyl-4-((6-((1-(2,2,2-trifluoroethyl)piperidin-4-yl)oxy)quinazolin-4-yl)oxy)phenyl) acetamide]
The pIC50 of the first is 0.97 log units higher: 8.41 for the first, 7.44 for the second.

`Cc1cc(CC(=O)Nc2cnn(C(C)(C)C)c2)ccc1Oc1ccnc2ccc(OC3CCN(CC(F)(F)F)CC3)cc12` [Compound 110, N-(1-(tert-butyl)-1H-pyrazol-4-yl)-2-(3-methyl-4-((6-((1-(2,2,2-trifluoroethyl)piperidin-4-yl)oxy)quinolin-4-yl)oxy)phenyl) acetamide] and `Cc1cc(CC(=O)Nc2cnn(C(C)(C)C)c2)ccc1Oc1ccnc2ccc(O[C@H]3CC[C@@H](N)CC3)cc12` [Compound 121, 2-(4-((6-(((1s,4s)-4-aminocyclo-hexyl)oxy)quinolin-4-yl)oxy)-3-methyl-phenyl)-N-(1-(tert-butyl)-1H-pyrazol-4-yl)acetamide] cannot be ordered by pIC50: over 8.60 for the first, over 8.60 for the second.

`Cc1cc(CC(=O)Nc2cnn(C(C)(C)C)c2)c(F)cc1Oc1ccnc2ccc(OC3CCNCC3)cc12` [Compound 114, N-(1-(tert-butyl)-1H-pyrazol-4-yl)-2-(2-fluoro-5-methyl-4-((6-(piperidin-4-yloxy)quinolin-4-yl)oxy)phenyl) acetamide] and `Cc1cc(CC(=O)Nc2cnn(C(C)(C)C)c2)c(F)cc1Oc1ccnc2ccc(OC3CCN(C)CC3)cc12` [Compound 115, N-(1-(tert-butyl)-1H-pyrazol-4-yl)-2-(2-fluoro-5-methyl-4-((6-((1-methyl-piperidin-4-yl)oxy)quinolin-4-yl)oxy)phenyl) acetamide] cannot be ordered by pIC50: over 8.60 for the first, over 8.60 for the second.

`Cc1cc(CC(=O)Nc2cnn(C(C)(C)C)c2)c(F)cc1Oc1ncnc2ccc(OC3CCNCC3)cc12` [Compound 116] and `Cc1cc(CC(=O)Nc2cnn(C(C)(C)C)c2)c(F)cc1Oc1ncnc2ccc(OC3CCN(C)CC3)cc12` [Compound 117, N-(1-(tert-butyl)-1H-pyrazol-4-yl)-2-(2-fluoro-5-methyl-4-((6-((1-methyl-piperidin-4-yl)oxy)quinazolin-4-yl)oxy)phenyl) acetamide] cannot be ordered by pIC50: over 8.60 for the first, over 8.60 for the second.

`Cc1cc(CC(=O)Nc2cnn(C(C)(C)C)c2)ccc1Oc1ccnc2ccc(S(=O)(=O)N3CCN(C)CC3)cc12` [Compound 118, N-(1-(tert-butyl)-1H-pyrazol-4-yl)-2-(3-methyl-4-((6-((4-methylpiperazin-1-yl)sulfonyl)quinolin-4-yl)oxy)phenyl)acetamide] and `Cc1cc(CC(=O)Nc2cnn(C(C)(C)C)c2)ccc1Oc1ccnc2ccc(S(=O)(=O)N3CCNCC3)cc12` [Compound 119, N-(1-(tert-butyl)-1H-pyrazol-4-yl)-2-(3-methyl-4-((6-(piperazin-1-ylsulfonyl)quinolin-4-yl)oxy)phenyl)acetamide] cannot be ordered by pIC50: over 8.60 for the first, over 8.60 for the second.

`Cc1cc(CC(=O)Nc2cnn(C(C)(C)C)c2)ccc1Oc1ccnc2ccc(O[C@H]3CC[C@H](N)CC3)cc12` [Compound 122, 2-(4-((6-(((1r,4r)-4-aminocyclohexyl)oxy)quinolin-4-yl)oxy)-3-methylphenyl)-N-(1-(tert-butyl)-1H-pyrazol-4-yl)acetamide] and `Cc1cc(CC(=O)Nc2cnn(C(C)(C)C)c2)ccc1Oc1ccnc2ccc(O[C@H]3C[C@@H](N)C3)cc12` [Compound 123, 2-(4-((6-((1s,3s)-3-aminocyclo-butoxy)quinolin-4-yl)oxy)-3-methyl-phenyl)-N-(1-(tert-butyl)-1H-pyrazol-4-yl)acetamide] cannot be ordered by pIC50: over 8.60 for the first, over 8.60 for the second.
